Experiments:
Test in all cases: Kinase selectivity assay
Type in all cases: biochemical
ABL2 = target: T1, ABL2 (Homo sapiens, UniProt P42684); conditions: target ABL2; read-out: CP1 IC50
T1 construct: ICE Biosciences (Beijing, China), ran the assays
Protocol: (§1) The selectivity of CP1 for PRDX1 was evaluated through kinase selectivity assays against other PRDX family members and a panel of kinases. The experiments were conducted by ICE Biosciences (Beijing, China).

ALK = target: T2, ALK (Homo sapiens, UniProt Q9UM73); conditions: target ALK; read-out: CP1 IC50
T2 construct: ICE Biosciences (Beijing, China), ran the assays
Protocol: as §1

CSF1R = target: T3, CSF1R (Homo sapiens, UniProt P07333); conditions: target CSF1R; read-out: CP1 IC50
T3 construct: ICE Biosciences (Beijing, China), ran the assays
Protocol: as §1

CSK = target: T4, CSK (Homo sapiens, UniProt P41240); conditions: target CSK; read-out: CP1 IC50
T4 construct: ICE Biosciences (Beijing, China), ran the assays
Protocol: as §1

DDR2 = target: T5, DDR2 (Homo sapiens, UniProt Q16832)
T5 construct: ICE Biosciences (Beijing, China), ran the assays
Protocol: as §1

EGFR = target: T6, EGFR (Homo sapiens, UniProt P00533); conditions: target EGFR; read-out: CP1 IC50
T6 construct: ICE Biosciences (Beijing, China), ran the assays
Protocol: as §1

EPHA2 = target: T7, EPHA2 (Homo sapiens, UniProt P29317); conditions: target EPHA2; read-out: CP1 IC50
T7 construct: ICE Biosciences (Beijing, China), ran the assays
Protocol: as §1

EPHB2 = EPHB2 (Homo sapiens, UniProt P29323); conditions: target EPHB2; read-out: CP1 IC50
Protocol: as §1

EPHB3 = EPHB3 (Homo sapiens, UniProt P54753); conditions: target EPHB3; read-out: CP1 IC50
Protocol: as §1

FES = target: T8, FES (Homo sapiens, UniProt P07332); conditions: target FES; read-out: CP1 IC50
T8 construct: assay run by ICE Biosciences (Beijing, China)
Protocol: as §1

FGFR2 = target: T9, FGFR2 (Homo sapiens, UniProt P21802); conditions: target FGFR2; read-out: CP1 IC50
T9 construct: assay run by ICE Biosciences (Beijing, China)
Protocol: as §1

FGFR3 = target: T10, FGFR3 (Homo sapiens, UniProt P22607); conditions: target FGFR3; read-out: CP1 IC50
T10 construct: assay run by ICE Biosciences (Beijing, China)
Protocol: as §1

FLT1 = target: T11, FLT1 (Homo sapiens, UniProt P17948); conditions: target FLT1; read-out: CP1 IC50
T11 construct: assay run by ICE Biosciences (Beijing, China)
Protocol: as §1

IGF1R = target: T12, IGF1R (Homo sapiens, UniProt P08069); conditions: target IGF1R; read-out: CP1 IC50
T12 construct: ICE Biosciences (Beijing, China), ran the assays
Protocol: as §1

INSR = INSR (Homo sapiens, UniProt P06213); conditions: target INSR; read-out: CP1 IC50
Protocol: as §1

INSRR = INSRR (Homo sapiens, UniProt P14616); conditions: target INSRR; read-out: CP1 IC50
Protocol: as §1

JAK1 = JAK1 (Homo sapiens, UniProt P23458); conditions: target JAK1; read-out: CP1 IC50
Protocol: as §1

JAK3 = JAK3 (Homo sapiens, UniProt P52333); conditions: target JAK3; read-out: CP1 IC50
Protocol: as §1

KIT = KIT (Homo sapiens, UniProt P10721); conditions: target KIT; read-out: CP1 IC50
Protocol: as §1

LCK = LCK (Homo sapiens, UniProt P06239); conditions: target LCK; read-out: CP1 IC50
Protocol: as §1

LTK = LTK (Homo sapiens, UniProt P29376); conditions: target LTK; read-out: CP1 IC50
Protocol: as §1

MET = MET (Homo sapiens, UniProt P08581); conditions: target MET; read-out: CP1 IC50
Protocol: as §1

MUSK = MUSK (Homo sapiens, UniProt O15146); conditions: target MUSK; read-out: CP1 IC50
Protocol: as §1

NTRK1 = NTRK1 (Homo sapiens, UniProt P04629)
Protocol: as §1

NTRK3 = target: T13, NTRK3 (Homo sapiens, UniProt Q16288)
T13 construct: assay run by ICE Biosciences (Beijing, China)
Protocol: as §1

PDGFRA = target: T14, PDGFRA (Homo sapiens, UniProt P16234); conditions: target PDGFRA; read-out: CP1 IC50
T14 construct: assay run by ICE Biosciences (Beijing, China)
Protocol: as §1

PRDX5 = target: T15, PRDX5 (Homo sapiens, UniProt P30044); conditions: target PRDX5; read-out: CP1 IC50
T15 construct: ICE Biosciences (Beijing, China), ran the assays
Protocol: as §1

PRDX6 = target: T16, PRDX6 (Homo sapiens, UniProt P30041)
T16 construct: ICE Biosciences (Beijing, China), ran the assays
Protocol: as §1

PTK2B = target: T17, PTK2B (Homo sapiens, UniProt Q14289); conditions: target PTK2B; read-out: CP1 IC50
T17 construct: assay run by ICE Biosciences (Beijing, China)
Protocol: as §1

SYK = target: T18, SYK (Homo sapiens, UniProt P43405); conditions: target SYK; read-out: CP1 IC50
T18 construct: assay run by ICE Biosciences (Beijing, China)
Protocol: as §1

TEC = target: T19, TEC (Homo sapiens, UniProt P42680); conditions: target TEC; read-out: CP1 IC50
T19 construct: assay run by ICE Biosciences (Beijing, China)
Protocol: as §1

TEK = target: T20, TEK (Homo sapiens, UniProt Q02763); conditions: target TEK; read-out: CP1 IC50
T20 construct: assay run by ICE Biosciences (Beijing, China)
Protocol: as §1

TNK2 = target: T21, TNK2 (Homo sapiens, UniProt Q07912); conditions: target TNK2; read-out: CP1 IC50
T21 construct: assay run by ICE Biosciences (Beijing, China)
Protocol: as §1

YES1 = target: T22, YES1 (Homo sapiens, UniProt P07947); conditions: target YES1; read-out: CP1 IC50
T22 construct: ICE Biosciences (Beijing, China), a contract laboratory that ran the assay
Protocol: as §1

Measured: IC50

Chain of NTRK1 (P04629 33-796): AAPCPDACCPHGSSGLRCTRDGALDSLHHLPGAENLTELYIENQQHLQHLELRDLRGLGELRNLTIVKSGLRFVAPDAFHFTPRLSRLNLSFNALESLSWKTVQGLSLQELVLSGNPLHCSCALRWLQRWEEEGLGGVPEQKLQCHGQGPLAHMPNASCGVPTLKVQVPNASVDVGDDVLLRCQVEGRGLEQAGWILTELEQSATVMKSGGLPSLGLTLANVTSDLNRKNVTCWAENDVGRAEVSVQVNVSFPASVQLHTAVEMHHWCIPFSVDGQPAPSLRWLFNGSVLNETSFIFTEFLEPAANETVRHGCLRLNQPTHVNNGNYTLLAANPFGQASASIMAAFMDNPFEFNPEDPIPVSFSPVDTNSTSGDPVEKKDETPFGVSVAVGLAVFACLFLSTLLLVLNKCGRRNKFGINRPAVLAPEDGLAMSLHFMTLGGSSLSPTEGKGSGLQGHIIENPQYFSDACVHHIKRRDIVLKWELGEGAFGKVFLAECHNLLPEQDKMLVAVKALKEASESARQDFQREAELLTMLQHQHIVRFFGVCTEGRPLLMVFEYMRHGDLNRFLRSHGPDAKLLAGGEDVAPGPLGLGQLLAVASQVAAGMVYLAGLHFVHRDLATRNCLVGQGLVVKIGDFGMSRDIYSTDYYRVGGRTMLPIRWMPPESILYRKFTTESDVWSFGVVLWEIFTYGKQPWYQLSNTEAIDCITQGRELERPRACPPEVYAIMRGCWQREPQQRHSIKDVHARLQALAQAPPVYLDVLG
T2 sequence (Q9UM73 19-1620): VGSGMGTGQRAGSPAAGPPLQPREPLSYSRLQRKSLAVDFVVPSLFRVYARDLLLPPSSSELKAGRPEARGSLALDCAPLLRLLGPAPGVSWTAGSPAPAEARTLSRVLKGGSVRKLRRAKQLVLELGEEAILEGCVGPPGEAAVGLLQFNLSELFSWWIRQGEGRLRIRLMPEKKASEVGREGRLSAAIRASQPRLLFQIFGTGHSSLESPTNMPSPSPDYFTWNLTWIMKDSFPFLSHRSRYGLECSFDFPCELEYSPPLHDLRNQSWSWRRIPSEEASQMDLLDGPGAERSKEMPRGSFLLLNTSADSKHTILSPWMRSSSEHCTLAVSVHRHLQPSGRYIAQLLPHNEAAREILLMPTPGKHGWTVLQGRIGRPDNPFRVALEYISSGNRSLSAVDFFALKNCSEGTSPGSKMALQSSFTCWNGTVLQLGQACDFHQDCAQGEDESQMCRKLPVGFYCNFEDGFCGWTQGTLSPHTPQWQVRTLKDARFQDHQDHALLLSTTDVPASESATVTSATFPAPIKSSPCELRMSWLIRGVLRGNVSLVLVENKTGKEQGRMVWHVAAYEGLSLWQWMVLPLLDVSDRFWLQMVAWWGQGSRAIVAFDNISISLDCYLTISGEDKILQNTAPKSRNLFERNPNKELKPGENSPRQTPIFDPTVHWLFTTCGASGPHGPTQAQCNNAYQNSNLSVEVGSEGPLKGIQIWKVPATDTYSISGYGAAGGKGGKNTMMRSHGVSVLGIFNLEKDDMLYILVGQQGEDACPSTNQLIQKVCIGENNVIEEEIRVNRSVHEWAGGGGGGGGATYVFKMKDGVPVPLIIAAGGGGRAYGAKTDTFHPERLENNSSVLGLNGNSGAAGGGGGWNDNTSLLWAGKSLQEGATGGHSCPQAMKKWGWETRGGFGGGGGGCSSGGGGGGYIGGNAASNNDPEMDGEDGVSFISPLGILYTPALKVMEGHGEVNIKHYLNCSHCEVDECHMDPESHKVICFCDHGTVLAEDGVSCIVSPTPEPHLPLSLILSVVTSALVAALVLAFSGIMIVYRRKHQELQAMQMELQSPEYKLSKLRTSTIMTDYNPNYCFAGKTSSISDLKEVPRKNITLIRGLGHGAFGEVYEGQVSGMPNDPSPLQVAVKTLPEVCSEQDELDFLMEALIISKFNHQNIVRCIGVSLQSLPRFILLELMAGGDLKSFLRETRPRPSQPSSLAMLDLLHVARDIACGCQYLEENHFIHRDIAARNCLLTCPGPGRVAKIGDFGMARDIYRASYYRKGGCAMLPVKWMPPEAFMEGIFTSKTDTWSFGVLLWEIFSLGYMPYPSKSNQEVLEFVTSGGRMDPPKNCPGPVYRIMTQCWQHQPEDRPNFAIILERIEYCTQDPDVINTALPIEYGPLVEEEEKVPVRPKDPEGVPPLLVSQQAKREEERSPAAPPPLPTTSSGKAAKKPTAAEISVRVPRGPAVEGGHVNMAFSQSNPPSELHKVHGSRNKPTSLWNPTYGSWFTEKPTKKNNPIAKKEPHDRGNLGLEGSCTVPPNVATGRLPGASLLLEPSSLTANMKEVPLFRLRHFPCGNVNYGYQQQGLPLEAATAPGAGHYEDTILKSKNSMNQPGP
T21 sequence (Q07912 whole entry): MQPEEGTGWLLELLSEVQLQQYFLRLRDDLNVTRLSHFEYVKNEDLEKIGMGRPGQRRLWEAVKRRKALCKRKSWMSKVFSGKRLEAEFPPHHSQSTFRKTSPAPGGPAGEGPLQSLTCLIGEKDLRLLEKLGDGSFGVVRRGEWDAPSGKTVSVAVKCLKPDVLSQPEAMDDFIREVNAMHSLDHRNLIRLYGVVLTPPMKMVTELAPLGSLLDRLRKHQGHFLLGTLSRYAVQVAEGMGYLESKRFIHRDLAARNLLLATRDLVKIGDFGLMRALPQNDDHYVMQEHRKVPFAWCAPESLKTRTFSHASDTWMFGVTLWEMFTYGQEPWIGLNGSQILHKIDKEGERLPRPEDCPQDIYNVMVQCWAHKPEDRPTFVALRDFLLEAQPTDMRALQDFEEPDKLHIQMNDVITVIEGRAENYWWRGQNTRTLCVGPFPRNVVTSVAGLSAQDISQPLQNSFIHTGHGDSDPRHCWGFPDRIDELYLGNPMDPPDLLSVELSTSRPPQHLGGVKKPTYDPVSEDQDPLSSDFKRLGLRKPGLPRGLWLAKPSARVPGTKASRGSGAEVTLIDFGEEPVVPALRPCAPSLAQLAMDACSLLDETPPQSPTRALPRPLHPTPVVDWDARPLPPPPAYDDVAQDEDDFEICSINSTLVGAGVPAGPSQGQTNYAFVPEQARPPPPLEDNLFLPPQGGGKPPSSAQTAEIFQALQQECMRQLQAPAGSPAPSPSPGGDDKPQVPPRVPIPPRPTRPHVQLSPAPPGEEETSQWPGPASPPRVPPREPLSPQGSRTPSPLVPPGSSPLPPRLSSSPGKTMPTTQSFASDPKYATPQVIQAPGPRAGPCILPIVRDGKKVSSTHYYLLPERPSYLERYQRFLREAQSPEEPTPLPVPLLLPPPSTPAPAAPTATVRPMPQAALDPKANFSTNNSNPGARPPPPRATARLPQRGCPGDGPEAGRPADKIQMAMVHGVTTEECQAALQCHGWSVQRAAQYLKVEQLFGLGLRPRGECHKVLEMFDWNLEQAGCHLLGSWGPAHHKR
T13 sequence (Q16288 32-839): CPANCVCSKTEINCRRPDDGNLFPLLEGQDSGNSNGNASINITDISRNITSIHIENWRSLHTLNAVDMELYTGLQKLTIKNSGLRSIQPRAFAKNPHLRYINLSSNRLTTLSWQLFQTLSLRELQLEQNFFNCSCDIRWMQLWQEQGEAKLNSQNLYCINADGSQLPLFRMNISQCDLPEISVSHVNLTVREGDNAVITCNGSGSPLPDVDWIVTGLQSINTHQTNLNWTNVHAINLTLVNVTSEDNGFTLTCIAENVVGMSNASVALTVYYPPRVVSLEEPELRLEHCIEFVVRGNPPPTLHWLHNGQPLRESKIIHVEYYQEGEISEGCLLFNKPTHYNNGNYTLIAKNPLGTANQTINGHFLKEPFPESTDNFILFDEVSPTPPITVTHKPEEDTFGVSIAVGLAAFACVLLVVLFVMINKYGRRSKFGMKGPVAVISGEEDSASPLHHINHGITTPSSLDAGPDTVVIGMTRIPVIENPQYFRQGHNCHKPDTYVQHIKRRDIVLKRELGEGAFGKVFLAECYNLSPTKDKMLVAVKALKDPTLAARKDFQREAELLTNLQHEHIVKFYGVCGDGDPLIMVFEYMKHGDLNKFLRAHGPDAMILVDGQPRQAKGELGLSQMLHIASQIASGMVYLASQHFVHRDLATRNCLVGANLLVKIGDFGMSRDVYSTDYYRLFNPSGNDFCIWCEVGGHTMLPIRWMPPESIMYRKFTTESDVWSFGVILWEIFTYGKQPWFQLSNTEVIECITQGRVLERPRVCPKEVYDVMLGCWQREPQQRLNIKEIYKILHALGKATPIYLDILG
T4 sequence (P41240 whole entry): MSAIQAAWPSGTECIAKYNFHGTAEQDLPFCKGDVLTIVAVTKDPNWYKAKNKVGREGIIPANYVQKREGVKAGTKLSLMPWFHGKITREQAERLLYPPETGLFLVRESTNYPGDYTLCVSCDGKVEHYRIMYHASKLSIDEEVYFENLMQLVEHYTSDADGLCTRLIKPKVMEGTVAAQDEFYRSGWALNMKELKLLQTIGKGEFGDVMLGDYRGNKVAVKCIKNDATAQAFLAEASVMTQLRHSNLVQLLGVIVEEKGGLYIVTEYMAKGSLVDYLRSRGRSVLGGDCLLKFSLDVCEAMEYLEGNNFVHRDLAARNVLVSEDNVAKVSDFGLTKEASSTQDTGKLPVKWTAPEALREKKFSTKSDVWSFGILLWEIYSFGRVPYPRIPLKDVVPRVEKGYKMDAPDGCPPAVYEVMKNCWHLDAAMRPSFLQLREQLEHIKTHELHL
T16 sequence (P30041 whole entry): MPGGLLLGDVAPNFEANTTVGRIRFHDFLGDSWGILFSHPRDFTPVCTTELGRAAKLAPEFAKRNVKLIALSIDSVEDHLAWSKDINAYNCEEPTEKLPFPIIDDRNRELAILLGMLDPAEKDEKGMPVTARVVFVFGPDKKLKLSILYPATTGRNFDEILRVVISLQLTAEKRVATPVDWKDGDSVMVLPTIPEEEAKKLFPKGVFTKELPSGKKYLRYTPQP
T15 sequence (P30044 53-214): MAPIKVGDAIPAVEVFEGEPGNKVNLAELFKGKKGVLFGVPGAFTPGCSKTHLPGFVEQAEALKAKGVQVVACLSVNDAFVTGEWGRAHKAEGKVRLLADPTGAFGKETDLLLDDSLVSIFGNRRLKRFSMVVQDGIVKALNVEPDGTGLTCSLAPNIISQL

CC1=C(CC(=O)/C=C/c2cccc(CO)c2)C(=O)C=C2C1=CC=C1[C@@]2(C)CC[C@@]2(C)C3C[C@](C)(C(=O)CCc4nc(C(O)C(O)O)c(C)nc4C)CC[C@]3(C)CC[C@]12C (stereo partly shown) [CP1]
> 30 µM: all assays above
